# Values quoted from earlier work in US11166911B2, “Parenteral dosage form of amiodarone” (SUN PHARMACEUTICAL INDUSTRIES LIMITED, priority 2016, dated 2021).
# Conditions: Parmar et al. 1997
compound,measurement,value
CCCCc1oc2ccccc2c1C(=O)c1cc(I)c(OCCN(CC)CC)c(I)c1 [Amidarone],Degradation upon storage at higher temperatures,degrade significantly
